In PubChem BioAssay (NCI) one finds GI50 and TGI data, which are given here for eight compounds.

The structures appear in SMILES notation.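 Values below derive from 48-hour exposures of cells grown in 96-well plates, with endpoints linearly interpolated between the two concentrations bracketing the appropriate inhibition level. GI50 is the concentration that inhibits growth by half. TGI: total growth inhibition.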

Among the test systems are 786-0 renal; CAKI-1 renal; DU-145 prostate; HOP-62 NSCLC; HOP-92 NSCLC; IGROV1 ovarian; MDA-MB-231 breast; OVCAR-3 ovarian; RXF 393 renal; SF-295 CNS.
Holding throughout (test): DTP human tumour cell line panel, 48 h

What is called GI50 is the concentration at which growth is held to half of that of the control. The term TGI denotes the concentration at which net growth stops. The low end stands for greater sensitivity of the cells, the high end for lower sensitivity of the cells. For `COC(=O)C(C)NC(=O)c1ccccc1I(OS(=O)(=O)C(F)(F)F)c1ccccc1` (stereo not drawn), the GI50 in the test on 786-0 renal is 25 µM; in the test on CAKI-1 renal it was more than 42.8 µM; in the test with DU-145 prostate it was 25.6 µM; in the test with HOP-62 NSCLC it was 29.5 µM; with HOP-92 NSCLC, 3.66 µM; with IGROV1 ovarian it was 36.4 µM. The GI50 with MDA-MB-231 breast was 15.6 µM; with OVCAR-3 ovarian, 19 µM; in the test with RXF 393 renal it was 17.7 µM; with SF-295 CNS it was more than 44.7 µM. Besides, the concentration for total growth inhibition (TGI) was 51 µM with 786-0 renal; more than 62.5 µM in the test with CAKI-1 renal; more than 71.1 µM with DU-145 prostate; 90.1 µM in the test with HOP-62 NSCLC; 21.6 µM with HOP-92 NSCLC; more than 100 µM in the test on IGROV1 ovarian. Also, the total growth inhibition concentration (TGI) with MDA-MB-231 breast is 34.5 µM; with OVCAR-3 ovarian it was 41.8 µM; in the test with RXF 393 renal, 41.6 µM; with SF-295 CNS, more than 63.6 µM.

On to `CN(C)CCCn1c(-c2nonc2N)nc2cnccc21`, for which the GI50 is more than 25 µM in the test on 786-0 renal; more than 25 µM with CAKI-1 renal; more than 25 µM in the test with DU-145 prostate; more than 25 µM in the test on HOP-62 NSCLC; 1.96 µM with HOP-92 NSCLC; more than 25 µM with IGROV1 ovarian. In addition, the GI50 with MDA-MB-231 breast was more than 25 µM; in the test on OVCAR-3 ovarian, more than 25 µM; in the test with RXF 393 renal, more than 5.19 µM; in the test with SF-295 CNS, more than 25 µM. Also, the concentration for total growth inhibition (TGI) in the test with 786-0 renal, in the test with CAKI-1 renal, in the test with DU-145 prostate, in the test with HOP-62 NSCLC, with HOP-92 NSCLC and in the test with IGROV1 ovarian was more than 25 µM in each case. For the same compound, the concentration for total growth inhibition (TGI) with MDA-MB-231 breast, in the test with OVCAR-3 ovarian, in the test with RXF 393 renal and in the test on SF-295 CNS was more than 25 µM throughout.

`C=CC(COC(c1ccccc1)(c1ccccc1)c1ccccc1)N(CC)CC` (stereo not drawn): the GI50 is 11.4 µM in the test on 786-0 renal; 2.43 µM in the test on CAKI-1 renal; 6.54 µM with DU-145 prostate; 3.93 µM with HOP-62 NSCLC; 4.5 µM in the test with HOP-92 NSCLC; 5.09 µM in the test on IGROV1 ovarian. Moreover, the GI50 in the test on MDA-MB-231 breast was 3.35 µM; in the test on OVCAR-3 ovarian, 7.04 µM; with RXF 393 renal it was 2.92 µM; with SF-295 CNS, 1.74 µM. The TGI was 27.7 µM in the test with 786-0 renal; 11.8 µM in the test on CAKI-1 renal; 20.2 µM in the test with DU-145 prostate; 15.6 µM in the test on HOP-62 NSCLC; 18 µM with HOP-92 NSCLC; 20.1 µM with IGROV1 ovarian. The TGI turned out to be 13.5 µM with MDA-MB-231 breast, 20.3 µM in the test with OVCAR-3 ovarian, 8.21 µM in the test on RXF 393 renal and 3.78 µM in the test on SF-295 CNS.

`CCN(Cc1c(Cl)cccc1Cl)c1ccc(CO)c(Cl)c1`: the GI50 was 13.8 µM with 786-0 renal; 4.23 µM in the test with CAKI-1 renal; 14.4 µM with DU-145 prostate; 2.15 µM with HOP-62 NSCLC; 0.606 µM in the test with HOP-92 NSCLC; less than 0.0253 µM with IGROV1 ovarian. In addition, the GI50 was 13 µM in the test with MDA-MB-231 breast, 0.232 µM in the test on OVCAR-3 ovarian and 7.16 µM in the test on RXF 393 renal. The total growth inhibition concentration (TGI) with 786-0 renal amounted to 28.1 µM; with CAKI-1 renal it was 21.9 µM; in the test on DU-145 prostate it was 27.9 µM; with HOP-62 NSCLC, 21.2 µM; in the test on HOP-92 NSCLC, 9.64 µM; with MDA-MB-231 breast, 26.2 µM. Moreover, the total growth inhibition concentration (TGI) with OVCAR-3 ovarian came out at 1.07 µM; in the test with RXF 393 renal, 24.7 µM; with SF-295 CNS it was 1.37 µM.

For `CCN(c1cc(C#CCN2CCOCC2)cc(C(=O)NCc2c(C)cc(C)[nH]c2=O)c1C)C1CCC(N(C)CCOC)CC1` (stereo not drawn), the GI50 in the test with 786-0 renal, in the test with CAKI-1 renal, in the test with DU-145 prostate, with HOP-62 NSCLC, in the test on HOP-92 NSCLC and in the test on IGROV1 ovarian was more than 100 µM throughout. Moreover, the GI50 in the test on MDA-MB-231 breast, in the test on OVCAR-3 ovarian, with RXF 393 renal and in the test with SF-295 CNS was more than 100 µM throughout. For the same compound, the total growth inhibition concentration (TGI) with 786-0 renal, in the test on CAKI-1 renal, in the test with DU-145 prostate, in the test on HOP-62 NSCLC, in the test with HOP-92 NSCLC and with IGROV1 ovarian was more than 100 µM in each case. Further, the TGI with MDA-MB-231 breast, in the test with OVCAR-3 ovarian, in the test with RXF 393 renal and in the test on SF-295 CNS was more than 100 µM each time.

For `COc1cccc2c1n([O-])c1cccc(OC)c1[n+]2=O`, the GI50 in the test with 786-0 renal was 8.78 µM; with CAKI-1 renal, 3.97 µM; in the test with DU-145 prostate, 7.97 µM; with HOP-62 NSCLC it was 11 µM; with HOP-92 NSCLC, 16.3 µM; in the test on IGROV1 ovarian it was 4.8 µM. For the same compound, the GI50 in the test with MDA-MB-231 breast is 20.9 µM; in the test with OVCAR-3 ovarian, 17.6 µM; with RXF 393 renal, 19.3 µM; with SF-295 CNS, 3.03 µM. In addition, the concentration for total growth inhibition (TGI) with 786-0 renal is 28.8 µM; in the test with CAKI-1 renal, 76.5 µM; in the test on DU-145 prostate, more than 100 µM; in the test with HOP-62 NSCLC, 36.7 µM; in the test with HOP-92 NSCLC it was more than 100 µM; with IGROV1 ovarian, 66.1 µM. Moreover, the TGI in the test on MDA-MB-231 breast is more than 100 µM; with OVCAR-3 ovarian, more than 100 µM; in the test on RXF 393 renal, more than 100 µM; in the test with SF-295 CNS, 18.5 µM.

Turning to `CC1=NN(c2nc(N)nc(/C=C\c3ccc([N+](=O)[O-])s3)n2)C(C)(C)C1`, the GI50 in the test with 786-0 renal, with CAKI-1 renal, in the test on DU-145 prostate, in the test with HOP-62 NSCLC, in the test on HOP-92 NSCLC and in the test with IGROV1 ovarian was more than 100 µM in each case. Also, the GI50 in the test on MDA-MB-231 breast, in the test on OVCAR-3 ovarian, in the test on RXF 393 renal and in the test with SF-295 CNS was more than 100 µM each time. In addition, the TGI in the test with 786-0 renal, in the test on CAKI-1 renal, in the test with DU-145 prostate, with HOP-62 NSCLC, with HOP-92 NSCLC and in the test with IGROV1 ovarian was more than 100 µM throughout. The total growth inhibition concentration (TGI) with MDA-MB-231 breast, in the test on OVCAR-3 ovarian, in the test on RXF 393 renal and in the test on SF-295 CNS was more than 100 µM each time.

For `O=C1C(Cl)=C(Nc2cccc(O)c2)C(=O)N1Cc1ccc(Cl)cc1Cl`, the GI50 in the test on 786-0 renal is 1.94 µM; in the test on CAKI-1 renal it was 13.4 µM; in the test on DU-145 prostate it was 11.3 µM; with HOP-62 NSCLC, 14.4 µM; with HOP-92 NSCLC it was 12.2 µM; with IGROV1 ovarian it was 1.17 µM. For the same compound, the GI50 in the test on MDA-MB-231 breast is 1.17 µM; in the test with OVCAR-3 ovarian, 12.1 µM; in the test on RXF 393 renal it was 1.06 µM; with SF-295 CNS, 11.3 µM. In addition, the TGI was 18.8 µM in the test with 786-0 renal; 26.7 µM in the test on CAKI-1 renal; 24.2 µM with DU-145 prostate; 30.5 µM with HOP-62 NSCLC; 26.9 µM in the test on HOP-92 NSCLC; 13.8 µM in the test with IGROV1 ovarian. The TGI with MDA-MB-231 breast worked out at 11 µM; in the test with OVCAR-3 ovarian, 26.4 µM; in the test on RXF 393 renal, 11.1 µM; in the test on SF-295 CNS, 25.1 µM.
